Experimental data from US20060270631A1, “Methods for the treatment and prevention of angiogenic diseases” (priority 2005, published 2006).

What was measured:
endogenous SK [1] = assay: Cellular S1P formation assay in human chondrocytes (HC); assay type: cell-based; settings: HCs; read-out: drug concentration that decreases S1P formation by 50%
Method: (§1) Cellular S1P formation assay. Cells were grown to confluency in 24-well tissue culture plates and serum-starved for 24 hours as described above. Cells were then treated with 1% DMSO (as the drug vehicle), 20 μM dimethylsphingosine, or the indicated concentration of an SK inhibitor for 4 hours. The cells were then incubated with [^3H]sphingosine for 15 minutes, and the formation of [^3H]S1P was measured as previously described (French et al., Cancer Res 63: 5962 (2003)). In some assays, the cells were serum-starved for 24 hours and then treated with VEGF (50 ng/mL) alone or in the presence of an SK inhibitor for an additional 12 hours. [^3 H]Sphingosine was then added for 15 minutes, and its conversion to [^3H]S1P was measured as indicated above.
A cell-based assay in which the phosphorylation of exogenously added [^3H]sphingosine to [^3H]S1P by endogenous SK can be quantified (French et al., Cancer Res 63: 5962 (2003)) was used to evaluate the effects of test compounds on the activity of SK in intact cells. In this assay, cells are incubated with [^3 H]sphingosine for an appropriate period of time, and then [^3H]sphingosine and [^3H]S1P (formed by endogenous SK activity) are separated by extraction and levels of both species are determined by scintillation counting. […] Similarly, the enzymatic activity of SK in bovine RECs, and its sensitivity to SK inhibitors were assessed. […]

endogenous SK [2] = assay: VEGF-stimulated SK activity in bovine RECs; assay type: cell-based; settings: VEGF 50 ng/mL, 12 hours, serum-starved bovine RECs
Method: FIG. 5. Effects of Compound II on VEGF-stimulated SK activity in RECs. Bovine RECs were serum-starved for 24 hours and then left untreated or incubated with VEGF (50 ng/mL) in the presence of DMS (D) or the indicated concentration (in μM) of Compound II for 12 hours. [^3H]Sphingosine was then added to the cells and its conversion to [^3H]S1P was determined. Values represent the mean±SD of duplicate samples in a typical experiment.
as §1
The effects of VEGF on SK activity in bovine RECs using the same cell-based assay as above, except that serum was removed from the cultures 24 hours before the addition of the SK inhibitor and VEGF were tested. […]

IC50 (endogenous SK [1]): 360 nM
Structure (SMILES): Oc1ccc(Nc2nc(-c3ccc(Cl)cc3)cs2)cc1 [Compound II]
concentration completely inhibiting the SK activity response to VEGF (endogenous SK [2]): ≥ 1.3 µM
